Results: US11408022B2, “Preparation method of anti-oxidation polypeptide” (Fu Zhou University, priority 2018, dated 2022)
Where no end group is shown, it is not given here.

How the values were obtained:
Assay type in all cases: biochemical
[1] = Oxygen radical absorption capacity
[2] = DPPH radical elimination activity; settings: 1 mg/mL
Experimental: 1 mL of the sample of different concentrations was respectively well mixed with 1 mL of DPPH solution ([…], prepared using 95% ethanol). The mixed solutions were kept still in shadow at room temperature for 30 min, and then the absorbance was determined at the wavelength of 517 nm. 1 mL of 95% ethanol solution in replacement of the DDPPH solution was used to prepare the sample reference group; and the control group included 1 mL of DPPH solution and 1 mL of 95% ethanol solution. The elimination rate of DPPH radicals of the sample was calculated using the following equation: […]
In the equation, • Ai—absorbance of the sample group • Aj—absorbance of the sample reference group • A0—absorbance of the control group

[3] = ABTS radical elimination activity; settings: 1 mg/mL
Experimental: 7 mM ABTS mother solution and 2.45 mM potassium peroxydisulfate solution were respectively prepared and stored for later use. The two solutions were mixed in a ratio of 1:1 before use. The mixed solution was placed still at room temperature for 16 h, and then diluted with phosphate buffer solution (5 mM, 7.4 pH) to obtain an ABTS radical solution with absorbance of 0.70±0.02 at the wavelength of 734 nm. The ABTS radical solution was mixed with samples of different concentrations and equal volume; after 10 min reaction at room temperature, the absorbance of the mixtures was determined at the wavelength of 734 nm; and finally, the mixtures were zero-set using the phosphate buffer solution (5 mM, 7.4 pH). In the control group, distilled water was used to replace samples. The elimination rate of ABTS radicals of the sample was calculated using the following equation: […]
In the equation: • Acontrol—absorbance of the control group • Asample—absorbance of the sample

## GAAVAL [anti-oxidation polypeptide, hexapeptide isolated from alkali protease hydrolysate of black shark skins]
[1]
  Oxygen radical absorption capacity: 527.53±65.15 μmol Trolox/g peptide
[2]
  Elimination rate of DPPH radicals: 67.00±0.24%
[3]
  Elimination rate of ABTS radicals: 64.12±0.20%
